US9717706B2, “Chromone inhibitors of S-nitrosoglutathione reductase” (Nivalis Therapeutics, Inc., priority 2010, dated 2017)

Test system: not listed separately
Experiment: Mouse pharmacokinetic (PK) study
Type: in vivo
Settings: plasma, male BALB/c mice, 10 mg/kg PO vs 2 mg/kg IV, single dose, based on area under the curve
Description: The mouse is used to determine the pharmacokinetics of GSNOR inhibitors. This species is widely used to assess the bioavailability of compounds by administering both oral (PO) and intravenous (IV) test articles. Efficacy of the GSNOR inhibitors can be compared by assessing plasma exposure in male BALB/c mice either via IV or PO administration at the times of peak activity.
The GSNOR inhibitor Compound 10 was reconstituted in a phosphate buffered saline (PBS)/10% Solutol (HS 15) clear solution resulting in a concentration of 0.2 mg/mL and administered to mice (2 mg/kg) as a single IV dose. Animals were dosed via the lateral tail vein. […] The plasma was transferred into labeled polypropylene tubes and frozen at −70° C. until analyzed by LC/MS/MS.
The GSNOR inhibitor Compound 10 was reconstituted in 40% Propylene Glycol/40% Propylene Carbonate/20% of a 5% Sucrose clear solution resulting in a concentration of 2 mg/mL and administered to mice (10 mg/kg) as a single oral dose via gavage. […] The plasma was transferred into labeled polypropylene tubes and frozen at −70° C. until analyzed by LC/MS/MS.
Plasma samples at each timepoint were analyzed using a LC-MS/MS with a lower limit of quantification (LLOQ) of 1 ng/mL. Plasma was analyzed to determine the amount of the GSNOR inhibitor in each sample and regression curves were generated for each GSNOR inhibitor in the relevant matrixes. […]
For `O=C(O)c1ccc(-c2c(C(F)(F)F)oc3cc(O)ccc3c2=O)cc1` [Example 10, 4-(7-hydroxy-4-oxo-2-(trifluoromethyl)-4H-chromen-3-yl)benzoic acid], the bioavailability was > 17%.

Target: T1, GSNOR (Homo sapiens, UniProt P11766)
T1 construct: made in house; host or cells: E. coli (arabinose-induced)
T1 sequence (P11766 whole entry): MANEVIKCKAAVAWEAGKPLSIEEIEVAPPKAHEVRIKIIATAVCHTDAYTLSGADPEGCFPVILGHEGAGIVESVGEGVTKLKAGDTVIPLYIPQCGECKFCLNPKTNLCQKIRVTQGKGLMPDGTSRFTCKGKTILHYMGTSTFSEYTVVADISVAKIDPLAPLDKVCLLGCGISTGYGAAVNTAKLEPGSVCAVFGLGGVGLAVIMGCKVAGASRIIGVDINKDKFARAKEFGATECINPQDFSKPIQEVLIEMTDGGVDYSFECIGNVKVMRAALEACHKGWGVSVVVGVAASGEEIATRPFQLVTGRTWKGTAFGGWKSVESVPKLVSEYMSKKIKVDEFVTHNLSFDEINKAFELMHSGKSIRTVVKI
Experiment: GSNOR assay (inhibition of GSNOR activity, NADH absorbance at 340 nm)
Type: biochemical
Settings: assay of Example 24; 0.240 mM GSNO, 0.300 mM NADH, pH 7.4, 25° C.; read-out: IC50 (GSNOR inhibitor activity)
Method: Various compounds were tested in vitro for their ability to inhibit GSNOR activity. GSNOR expression and purification is described in Biochemistry 2000, 39, 10720-10729.
GSNOR Fermentation: Pre-cultures were grown from stabs of a GSNOR glycerol stock in 2XYT media containing 100 ug/ml ampicillin after an overnight incubation at 37° C. Cells were then added to fresh 2XYT (4 L) containing ampicillin and grown to an OD (A600) of 0.6-0.9 at 37° C. before induction. GSNOR expression was induced with 0.1% arabinose in an overnight incubation at 20° C.
GSNOR Purification: E. coli cell paste was lysed by nitrogen cavitation and the clarified lysate purified by Ni affinity chromatography on an AKTA FPLC (Amersham Pharmacia). The column was eluted in 20 mM Tris pH 8.0/250 mM NaCl with a 0-500 mM imidazole gradient. Eluted GSNOR fractions containing the Smt-GSNOR fusion were digested overnight with Ulp-1 at 4° C. to remove the affinity tag then re-run on the Ni column under the same conditions. GSNOR was recovered in the flowthrough fraction and for crystallography is further purified by Q-Sepharose and Heparin flowthrough chromatography in 20 mM Tris pH 8.0, 1 mM DTT, 10 uM ZnSO4.
GSNOR Assay: GSNO and Enzyme/NADH Solutions are made up fresh each day. The Solutions are filtered and allowed to warm to room temperature. GSNO Solution: 100 mM NaPO4 (pH 7.4), 0.480 mM GSNO. 396 μL of GSNO Solution is added to a cuvette followed by 8 μL of test compound in DMSO (or DMSO only for full reaction control) and mixed with the pipette tip. Compounds to be tested are made up at a stock concentration of 10 mM in 100% DMSO. 2 fold serial dilutions are done in 100% DMSO. 8 μL of each dilution are added to an assay so that the final concentration of DMSO in the assay is 1%. The concentrations of compounds tested range from 100 to 0.003 μM. Enzyme/NADH Solution: 100 mM NaPO4 (pH 7.4), 0.600 mM NADH, 1.0 μg/mL GSNO Reductase. 396 μL of the Enzyme/NADH Solution is added to the cuvette to start the reaction. The cuvette is placed in the Cary 3E UV/Visible Spectrophotometer and the change in 340 nm absorbance/min at 25° C. is recorded for 3 minutes. The assays are done in triplicate for each compound concentration. IC50's for each compound are calculated using the standard curve analysis in the Enzyme Kinetics Module of SigmaPlot.
Final assay conditions: 100 mM NaPO4, pH 7.4, 0.240 mM GSNO, 0.300 mM NADH, 0.5 μg/mL GSNO Reductase and 1% DMSO. Final volume: 800 μL/cuvette.
For `O=C(O)c1ccc(-c2c(C(F)F)oc3cc(O)ccc3c2=O)cc1` [Example 1, 4-(2-(difluoromethyl)-7-hydroxy-4-oxo-4H-chromen-3-yl)benzoic acid], the IC50 was < 100 nM.
For `COCc1oc2cc(O)ccc2c(=O)c1-c1ccc(C(=O)O)cc1` [Example 2, 4-(7-hydroxy-2-(methoxymethyl)-4-oxo-4H-chromen-3-yl)benzoic acid], the IC50 was < 500 nM.
For `CC(C)c1oc2cc(O)ccc2c(=O)c1-c1ccc(C(=O)O)cc1` [Example 3, 4-(7-hydroxy-2-isopropyl-4-oxo-4H-chromen-3-yl)benzoic acid], the IC50 was < 500 nM.
With `Cc1oc2cc(O)ccc2c(=O)c1-c1ccc(C(=O)O)cc1` [Example 5, 4-(7-hydroxy-2-methyl-4-oxo-4H-chromen-3-yl)benzoic acid] the IC50 was < 500 nM.
For `O=C(O)c1ccc(-c2c(Cc3ccccc3)oc3cc(O)ccc3c2=O)cc1` [Example 6, 4-(2-benzyl-7-hydroxy-4-oxo-4H-chromen-3-yl)benzoic acid], the IC50 was < 500 nM.
In the case of `O=C(O)c1ccc(-c2c(C(F)(F)F)oc3cc(O)ccc3c2=O)cc1` [Example 10, 4-(7-hydroxy-4-oxo-2-(trifluoromethyl)-4H-chromen-3-yl)benzoic acid], the IC50 is reported as < 100 nM.
With `O=C(O)c1ccc(-c2c(C(F)(F)F)oc3cc(O)c(F)cc3c2=O)cc1` [Example 13, 4-(6-fluoro-7-hydroxy-4-oxo-2-(trifluoromethyl)-4H-chromen-3-yl)benzoic acid] the IC50 was < 500 nM.
In the case of `O=C(O)c1ccc(-c2c(C(F)(F)F)oc3cc(O)ccc3c2=O)cc1F` [Example 14, 2-fluoro-4-(7-hydroxy-4-oxo-2-(trifluoromethyl)-4H-chromen-3-yl)benzoic acid], the IC50 is reported as < 100 nM.
In the case of `O=C(O)c1ccc(-c2c(C(F)(F)F)oc3cc(O)ccc3c2=O)c(Cl)c1` [Example 15, 3-chloro-4-(7-hydroxy-4-oxo-2-(trifluoromethyl)-4H-chromen-3-yl)benzoic acid], the IC50 is reported as < 100 nM.
In the case of `CC(F)(F)c1oc2cc(O)ccc2c(=O)c1-c1ccc(C(=O)O)cc1` [Example 16, 4-(2-(1,1-difluoroethyl)-7-hydroxy-4-oxo-4H-chromen-3-yl)benzoic acid], the IC50 is reported as < 100 nM.
With `O=C(O)c1ccc(-c2c(C(F)(F)F)oc3cc(O)ccc3c2=O)cc1Cl` [Example 18, 2-chloro-4-(7-hydroxy-4-oxo-2-(trifluoromethyl)-4H-chromen-3-yl)benzoic acid] the IC50 was < 100 nM.
For `CCC(F)(F)c1oc2cc(O)ccc2c(=O)c1-c1ccc(C(=O)O)cc1` [Example 19, 4-(2-(1,1-difluoropropyl)-7-hydroxy-4-oxo-4H-chromen-3-yl)benzoic acid], the IC50 was < 500 nM.
For `COc1cc(C(=O)O)ccc1-c1c(C(F)(F)F)oc2cc(O)ccc2c1=O` [Example 20, 4-(7-hydroxy-4-oxo-2-(trifluoromethyl)-4H-chromen-3-yl)-3-methoxybenzoic acid], the IC50 was < 100 nM.

Same assay, conditions: method described in Example 24; comparative example; read-out: IC50 (GSNOR inhibitor activity)
In the case of `O=C(O)c1ccc(-c2coc3cc(O)ccc3c2=O)cc1` [Example 22, 4-(7-hydroxy-4-oxo-4H-chromen-3-yl)benzoic acid, reference compound], the IC50 is reported as 135 nM.
